# Laboratory results reported in ChEMBL document CHEMBL1201862, “PubChem BioAssay data set” (2004).
# Calls of active or inactive are those of the source.
# Tests used:
# [1] = biological target: T1, Histone-lysine N-methyltransferase NSD2 (Homo sapiens, UniProt O96028); type: biochemical
# T1 sequence (O96028 whole entry): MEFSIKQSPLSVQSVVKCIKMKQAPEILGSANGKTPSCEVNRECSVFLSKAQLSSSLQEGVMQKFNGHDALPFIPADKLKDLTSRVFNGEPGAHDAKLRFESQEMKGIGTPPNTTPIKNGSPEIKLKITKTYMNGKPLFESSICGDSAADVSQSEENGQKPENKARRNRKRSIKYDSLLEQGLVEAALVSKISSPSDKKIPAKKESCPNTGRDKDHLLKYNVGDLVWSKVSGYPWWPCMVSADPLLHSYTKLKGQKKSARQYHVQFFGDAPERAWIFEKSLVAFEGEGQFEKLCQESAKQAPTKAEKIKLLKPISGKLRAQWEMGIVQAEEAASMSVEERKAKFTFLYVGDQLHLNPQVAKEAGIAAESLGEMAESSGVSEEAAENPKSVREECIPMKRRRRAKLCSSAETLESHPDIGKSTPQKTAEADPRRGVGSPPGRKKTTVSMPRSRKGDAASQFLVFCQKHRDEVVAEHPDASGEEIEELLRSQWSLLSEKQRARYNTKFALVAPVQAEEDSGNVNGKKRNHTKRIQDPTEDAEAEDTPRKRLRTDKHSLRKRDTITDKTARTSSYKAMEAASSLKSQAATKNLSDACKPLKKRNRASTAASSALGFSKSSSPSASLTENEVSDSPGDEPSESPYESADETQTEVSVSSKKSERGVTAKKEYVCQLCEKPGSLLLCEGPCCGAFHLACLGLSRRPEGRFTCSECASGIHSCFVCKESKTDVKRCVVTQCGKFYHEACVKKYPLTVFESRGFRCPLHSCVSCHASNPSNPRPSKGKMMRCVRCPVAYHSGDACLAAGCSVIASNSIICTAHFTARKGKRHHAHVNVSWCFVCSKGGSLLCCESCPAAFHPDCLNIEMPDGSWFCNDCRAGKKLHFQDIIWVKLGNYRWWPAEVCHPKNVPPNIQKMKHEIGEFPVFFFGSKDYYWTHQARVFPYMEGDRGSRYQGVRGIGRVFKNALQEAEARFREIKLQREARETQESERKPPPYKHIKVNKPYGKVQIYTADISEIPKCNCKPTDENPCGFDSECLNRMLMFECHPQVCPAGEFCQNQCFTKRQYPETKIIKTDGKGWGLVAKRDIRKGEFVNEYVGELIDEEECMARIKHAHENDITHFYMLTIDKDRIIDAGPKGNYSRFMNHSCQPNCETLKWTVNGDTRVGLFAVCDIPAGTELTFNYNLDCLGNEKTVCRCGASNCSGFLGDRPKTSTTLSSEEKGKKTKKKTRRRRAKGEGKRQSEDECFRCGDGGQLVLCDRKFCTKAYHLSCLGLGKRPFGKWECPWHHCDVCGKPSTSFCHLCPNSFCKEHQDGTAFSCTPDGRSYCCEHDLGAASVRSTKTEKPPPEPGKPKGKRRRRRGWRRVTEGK
# Vero = assay: viability of Vero cells under compound – cytotoxicity control for flavivirus capping enzyme inhibitors (AID 588742); type: functional; conditions: Chlorocebus sabaeus
# Genome polyprotein = Genome polyprotein (dengue virus type 2, UniProt P29990); assay: flavivirus cap methylation enzyme inhibition – biochemical, confirmation dose response, primary screen (AID 588689); type: functional
# [2] = biological target: DNA dC->dU-editing enzyme APOBEC-3G (Homo sapiens, UniProt Q9HC16); type: functional;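 note: Dose-response counterscreen measuring inhibition of APOBEC3G DNA deaminase activity, run while confirming APOBEC3A inhibitors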
# [3] = biological target: DNA dC->dU-editing enzyme APOBEC-3A (Homo sapiens, UniProt P31941); assay: Dose Response confirmation of small molecule APOBEC3A DNA Deaminase Inhibitors via a fluorescence-based single-stranded DNA deaminase assay. [Related pubchem assays (depositor defined):AID493011, AID493024]; type: functional
# Integrin alpha-L = Integrin alpha-L (Mus musculus, UniProt P24063); assay: modulators of CD8 T cell-vesicle binding, dose response, powder samples, mouse 2C CD8+ cells (AID 504565); type: functional
# T-cell = assay: loss of vesicle association with mouse CD8+ T cells – mouse 2C CD8+ T cells, flow cytometry, dose response (AID 485284); type: functional
# Coagulation factor XII = biological target: T2, Coagulation factor XII (Homo sapiens, UniProt P00748); assay: Factor XIIa Dose Response Confirmation from Single Well HTS. [Related pubchem assays (depositor defined):AID701]; type: functional
# T2 sequence (P00748 whole entry): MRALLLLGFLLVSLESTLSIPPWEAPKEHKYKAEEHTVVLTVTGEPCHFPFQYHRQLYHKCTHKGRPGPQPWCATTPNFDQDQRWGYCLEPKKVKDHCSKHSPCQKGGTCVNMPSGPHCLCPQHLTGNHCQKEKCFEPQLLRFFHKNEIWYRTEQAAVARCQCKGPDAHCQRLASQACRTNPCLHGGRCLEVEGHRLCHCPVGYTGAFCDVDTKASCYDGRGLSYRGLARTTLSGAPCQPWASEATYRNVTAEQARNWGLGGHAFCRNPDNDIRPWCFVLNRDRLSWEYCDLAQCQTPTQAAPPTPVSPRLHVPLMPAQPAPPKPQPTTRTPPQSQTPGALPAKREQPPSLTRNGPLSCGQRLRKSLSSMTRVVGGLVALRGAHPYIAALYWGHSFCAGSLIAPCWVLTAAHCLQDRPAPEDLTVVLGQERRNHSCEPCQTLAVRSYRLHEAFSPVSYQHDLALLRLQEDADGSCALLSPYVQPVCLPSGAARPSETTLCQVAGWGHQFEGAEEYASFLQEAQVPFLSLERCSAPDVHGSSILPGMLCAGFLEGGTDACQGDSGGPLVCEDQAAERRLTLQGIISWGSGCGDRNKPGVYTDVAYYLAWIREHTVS
# [4] = biological target: Delta-type opioid receptor (Homo sapiens, UniProt P41143); assay: SAR Analysis of Antagonists of the DOR Receptor using an Image-Based Assay - Set 3. [Related pubchem assays (depositor defined):AID1777, AID1785]; type: functional;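 note: U2OS cells expressing DOR1 and beta-arrestin GFP stimulated with 100 nM SNC80; imaging of GFP-tagged beta-arrestin moving into spots after receptor activation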
# Mu-type opioid receptor = Mu-type opioid receptor (Homo sapiens, UniProt P35372); assay: SAR Analysis of Antagonists of the MOR Receptor using an Image-Based Assay - Set 3. [Related pubchem assays (depositor defined):AID1777, AID1785, AID1786, AID1966, AID2133, AID2136, AID2284, AID2285, AID2420]; type: functional
# [5] = biological target: T3, Kappa-type opioid receptor (Homo sapiens, UniProt P41145); assay: SAR analysis of small molecule antagonists of the kappa opioid receptor via a luminescent beta-arrestin assay - Set 3. [Related pubchem assays (depositor defined):AID1777, AID1778, AID1785, AID1786, AID1966, AID2133, AID2136, AID2285, AID2495]; type: functional
# [6] = biological target: T3, Kappa-type opioid receptor; assay: SAR analysis of Antagonists of the Kappa Opioid Receptor (KOR) using an Image-Based Assay - Set 3. [Related pubchem assays (depositor defined):AID1777, AID1785]; type: functional
# Hexokinase = Hexokinase (Trypanosoma brucei, UniProt Q38C41); assay: Confirmation assay for inhibitors of Trypanosoma brucei hexokinase 1-Analogue-first series. [Related pubchem assays (depositor defined):AID1430, AID1632, AID2516, AID2560, AID2579, AID2600, AID449725, AID492951]; type: functional
# [7] = biological target: T4, Tyrosine-protein phosphatase non-receptor type 7 (Homo sapiens, UniProt P35236); assay: redox-active compounds inhibiting HePTP phosphatase – biochemical, fluorescence, mechanism study (AID 2068); type: functional
# T4 sequence (P35236 whole entry): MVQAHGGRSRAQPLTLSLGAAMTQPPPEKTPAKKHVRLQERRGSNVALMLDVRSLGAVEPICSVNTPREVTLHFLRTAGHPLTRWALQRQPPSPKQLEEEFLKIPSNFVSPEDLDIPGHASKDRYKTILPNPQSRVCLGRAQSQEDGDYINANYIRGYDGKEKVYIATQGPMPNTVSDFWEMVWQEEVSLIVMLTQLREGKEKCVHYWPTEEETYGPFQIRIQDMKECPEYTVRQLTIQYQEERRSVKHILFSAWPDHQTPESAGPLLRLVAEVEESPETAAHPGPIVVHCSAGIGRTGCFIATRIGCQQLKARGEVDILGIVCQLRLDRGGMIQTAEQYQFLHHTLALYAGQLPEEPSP
# [8] = biological target: T5, Dual specificity protein phosphatase 6 (Rattus norvegicus, UniProt Q64346); type: functional;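 note: confirmatory in vitro dose-response testing of MKP-3 inhibition; recombinant His-tagged MKP-3 made in E. coli BL21 with OMFP substrate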
# T5 sequence (Q64346 whole entry): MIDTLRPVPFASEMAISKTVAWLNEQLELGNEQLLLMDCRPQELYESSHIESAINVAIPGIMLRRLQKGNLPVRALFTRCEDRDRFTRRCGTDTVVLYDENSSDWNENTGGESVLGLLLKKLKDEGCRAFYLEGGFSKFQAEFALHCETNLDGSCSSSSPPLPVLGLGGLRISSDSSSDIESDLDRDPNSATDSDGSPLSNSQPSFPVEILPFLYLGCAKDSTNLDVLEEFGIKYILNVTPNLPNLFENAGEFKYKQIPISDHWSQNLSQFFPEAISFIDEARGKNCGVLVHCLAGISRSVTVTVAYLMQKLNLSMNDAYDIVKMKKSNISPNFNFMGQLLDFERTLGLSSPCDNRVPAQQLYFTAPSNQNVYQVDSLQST
# [9] = biological target: T6, Dual specificity protein phosphatase 3 (Homo sapiens, UniProt P51452); assay: SAR VHR1 absorbance Assay for In Vitro dose response studies. [Related pubchem assays (depositor defined):AID1654, AID1661, AID1878, AID1992, AID2004]
# [10] = biological target: T6, Dual specificity protein phosphatase 3; assay: SAR VHR1 Fluorescent Assay for In Vitro dose response studies. [Related pubchem assays (depositor defined):AID1654, AID1661, AID1878, AID1992, AID2004, AID2070, AID2085]; type: functional
# [11] = biological target: Bifunctional protein GlmU (Mycobacterium tuberculosis, UniProt P9WMN3); assay: Inhibitors of Mycobacterial Glucosamine-1-phosphate acetyl transferase (GlmU). Secondary screen.; design: species or system Mycobacterium tuberculosis H37Rv
# [12] = biological target: T7, Voltage-gated N-type calcium channel alpha-1B subunit/Amyloid beta A4 precursor protein-binding family A member 1 (Homo sapiens, UniProt Q00975+Q02410); type: protein assay
# [13] = biological target: T8, Mannose-6-phosphate isomerase (Homo sapiens, UniProt P34949); assay: MPI inhibition at elevated mannose 6-phosphate – biochemical, fluorescence intensity, high mannose 6-phosphate, primary screen (AID 1220)
# T8 sequence (P34949 whole entry): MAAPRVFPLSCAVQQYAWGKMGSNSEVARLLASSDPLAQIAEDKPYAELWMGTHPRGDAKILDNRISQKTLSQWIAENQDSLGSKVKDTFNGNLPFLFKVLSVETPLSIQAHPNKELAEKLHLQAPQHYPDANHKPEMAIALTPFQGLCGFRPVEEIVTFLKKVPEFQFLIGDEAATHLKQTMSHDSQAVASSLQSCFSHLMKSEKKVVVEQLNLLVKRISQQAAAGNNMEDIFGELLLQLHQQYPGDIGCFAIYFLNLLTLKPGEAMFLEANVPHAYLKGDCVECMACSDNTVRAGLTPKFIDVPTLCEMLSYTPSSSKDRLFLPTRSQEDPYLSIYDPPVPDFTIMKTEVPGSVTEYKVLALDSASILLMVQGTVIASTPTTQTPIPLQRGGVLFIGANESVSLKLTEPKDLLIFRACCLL
# [14] = biological target: Induced myeloid leukemia cell differentiation protein Mcl-1 (Homo sapiens, UniProt Q07820); type: functional
# [15] = biological target: T7, Voltage-gated N-type calcium channel alpha-1B subunit/Amyloid beta A4 precursor protein-binding family A member 1; type: protein assay; remark: listed apart in the source
# [16] = biological target: Glucose-6-phosphate 1-dehydrogenase (Homo sapiens, UniProt P11413); assay: inhibition of Homo sapiens G6PD, dose series – biochemical, fluorescence, selectivity assay for P. falciparum G6PD inhibitor project, dose response (AID 504792); type: functional
# [17] = biological target: Eukaryotic translation initiation factor 4E (Mus musculus, UniProt P63073); assay: blockers of eIF4G binding by eIF4E – biochemical, TR-FRET, dose response (AID 855); type: functional;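 note: potency for disrupting eIF4E binding to eIF4GI seen as loss of FRET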
# T3 sequence (P41145 whole entry): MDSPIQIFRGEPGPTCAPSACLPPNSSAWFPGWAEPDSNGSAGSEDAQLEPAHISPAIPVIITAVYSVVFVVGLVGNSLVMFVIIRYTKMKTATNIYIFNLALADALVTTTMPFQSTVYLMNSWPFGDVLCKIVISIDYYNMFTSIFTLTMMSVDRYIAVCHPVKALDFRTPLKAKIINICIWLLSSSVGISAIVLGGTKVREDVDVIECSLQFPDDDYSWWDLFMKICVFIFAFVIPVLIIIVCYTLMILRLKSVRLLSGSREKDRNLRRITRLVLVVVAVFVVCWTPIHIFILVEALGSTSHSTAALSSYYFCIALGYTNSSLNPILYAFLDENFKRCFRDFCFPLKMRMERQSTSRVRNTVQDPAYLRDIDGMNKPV
# T7 sequence (Q00975 whole entry): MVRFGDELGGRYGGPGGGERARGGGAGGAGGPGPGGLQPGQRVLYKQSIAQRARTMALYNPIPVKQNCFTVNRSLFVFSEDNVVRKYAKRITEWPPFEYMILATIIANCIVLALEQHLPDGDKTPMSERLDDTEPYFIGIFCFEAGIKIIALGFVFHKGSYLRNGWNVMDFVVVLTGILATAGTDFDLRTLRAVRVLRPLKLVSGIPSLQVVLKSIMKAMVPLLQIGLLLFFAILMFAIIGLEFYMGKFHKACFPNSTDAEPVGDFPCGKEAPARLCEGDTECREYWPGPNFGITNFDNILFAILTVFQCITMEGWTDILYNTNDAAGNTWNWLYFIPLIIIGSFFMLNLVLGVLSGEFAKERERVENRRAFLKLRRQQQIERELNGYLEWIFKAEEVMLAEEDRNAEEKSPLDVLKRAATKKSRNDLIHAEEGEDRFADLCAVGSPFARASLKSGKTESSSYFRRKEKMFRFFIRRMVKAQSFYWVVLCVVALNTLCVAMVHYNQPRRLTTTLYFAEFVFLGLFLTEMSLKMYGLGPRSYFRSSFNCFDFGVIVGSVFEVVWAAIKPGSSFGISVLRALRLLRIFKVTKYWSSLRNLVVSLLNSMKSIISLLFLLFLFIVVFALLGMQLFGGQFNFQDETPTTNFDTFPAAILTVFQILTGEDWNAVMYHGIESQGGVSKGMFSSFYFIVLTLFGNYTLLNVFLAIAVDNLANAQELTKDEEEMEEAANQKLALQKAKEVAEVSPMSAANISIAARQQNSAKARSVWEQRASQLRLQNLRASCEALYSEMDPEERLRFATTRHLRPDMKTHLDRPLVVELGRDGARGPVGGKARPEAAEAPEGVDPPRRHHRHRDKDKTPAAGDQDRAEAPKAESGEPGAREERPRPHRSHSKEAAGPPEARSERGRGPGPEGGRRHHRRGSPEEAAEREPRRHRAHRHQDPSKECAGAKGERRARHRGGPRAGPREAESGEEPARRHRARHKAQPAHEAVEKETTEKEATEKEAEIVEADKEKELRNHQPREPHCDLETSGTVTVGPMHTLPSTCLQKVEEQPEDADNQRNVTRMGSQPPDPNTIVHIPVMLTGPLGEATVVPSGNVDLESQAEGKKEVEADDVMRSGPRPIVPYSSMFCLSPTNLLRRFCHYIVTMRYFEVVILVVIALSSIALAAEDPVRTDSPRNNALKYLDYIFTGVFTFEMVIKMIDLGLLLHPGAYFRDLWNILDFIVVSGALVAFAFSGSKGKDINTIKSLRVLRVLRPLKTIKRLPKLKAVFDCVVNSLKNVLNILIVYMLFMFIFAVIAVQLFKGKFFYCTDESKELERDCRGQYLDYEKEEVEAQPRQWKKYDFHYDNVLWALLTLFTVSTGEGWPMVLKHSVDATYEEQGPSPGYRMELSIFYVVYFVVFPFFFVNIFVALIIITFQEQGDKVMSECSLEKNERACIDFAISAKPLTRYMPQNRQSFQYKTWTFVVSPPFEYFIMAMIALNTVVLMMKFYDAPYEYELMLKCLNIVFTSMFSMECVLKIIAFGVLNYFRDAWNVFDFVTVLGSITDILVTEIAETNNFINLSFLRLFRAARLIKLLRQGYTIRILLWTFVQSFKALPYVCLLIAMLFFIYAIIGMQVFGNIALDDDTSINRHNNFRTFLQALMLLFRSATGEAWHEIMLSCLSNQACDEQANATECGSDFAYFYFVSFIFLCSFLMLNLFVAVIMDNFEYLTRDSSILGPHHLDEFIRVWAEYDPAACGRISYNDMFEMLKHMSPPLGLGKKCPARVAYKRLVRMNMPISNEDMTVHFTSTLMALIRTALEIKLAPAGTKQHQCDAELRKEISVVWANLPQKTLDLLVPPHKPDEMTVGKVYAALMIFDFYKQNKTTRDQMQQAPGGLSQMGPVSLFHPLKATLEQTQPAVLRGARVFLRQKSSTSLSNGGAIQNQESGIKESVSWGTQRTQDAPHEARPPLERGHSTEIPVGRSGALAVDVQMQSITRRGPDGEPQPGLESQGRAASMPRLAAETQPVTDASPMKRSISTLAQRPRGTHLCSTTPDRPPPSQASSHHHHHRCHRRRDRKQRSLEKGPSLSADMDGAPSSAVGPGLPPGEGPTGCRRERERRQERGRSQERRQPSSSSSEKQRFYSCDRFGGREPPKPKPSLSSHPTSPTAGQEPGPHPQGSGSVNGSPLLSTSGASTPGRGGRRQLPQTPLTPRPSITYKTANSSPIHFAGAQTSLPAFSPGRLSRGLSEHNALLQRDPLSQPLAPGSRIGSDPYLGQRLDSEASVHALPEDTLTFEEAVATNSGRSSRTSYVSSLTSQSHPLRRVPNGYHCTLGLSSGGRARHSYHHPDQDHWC
# T7 sequence (Q02410 whole entry): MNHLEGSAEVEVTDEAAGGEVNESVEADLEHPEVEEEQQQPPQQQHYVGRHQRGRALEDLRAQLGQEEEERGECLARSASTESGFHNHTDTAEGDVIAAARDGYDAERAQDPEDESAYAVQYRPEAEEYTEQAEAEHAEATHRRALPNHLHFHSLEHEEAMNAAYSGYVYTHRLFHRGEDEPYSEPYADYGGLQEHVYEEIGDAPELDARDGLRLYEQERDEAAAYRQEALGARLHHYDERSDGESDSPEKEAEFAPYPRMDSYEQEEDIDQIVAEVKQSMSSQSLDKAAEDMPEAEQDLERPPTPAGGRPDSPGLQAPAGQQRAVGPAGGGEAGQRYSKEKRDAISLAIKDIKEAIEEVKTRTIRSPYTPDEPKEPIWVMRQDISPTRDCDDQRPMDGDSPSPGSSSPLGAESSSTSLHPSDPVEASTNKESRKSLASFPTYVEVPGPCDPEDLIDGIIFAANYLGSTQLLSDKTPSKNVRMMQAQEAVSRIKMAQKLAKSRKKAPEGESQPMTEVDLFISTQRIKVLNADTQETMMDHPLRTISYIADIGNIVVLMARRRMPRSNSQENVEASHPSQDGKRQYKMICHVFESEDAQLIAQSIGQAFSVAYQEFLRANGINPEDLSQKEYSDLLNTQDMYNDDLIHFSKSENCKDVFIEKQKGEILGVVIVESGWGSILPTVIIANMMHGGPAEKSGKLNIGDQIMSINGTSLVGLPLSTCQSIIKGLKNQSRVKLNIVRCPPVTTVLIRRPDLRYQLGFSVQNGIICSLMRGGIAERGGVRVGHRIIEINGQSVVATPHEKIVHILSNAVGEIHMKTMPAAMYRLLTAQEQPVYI
# Chain of Genome polyprotein (P29990 2492-3391 limits assumed): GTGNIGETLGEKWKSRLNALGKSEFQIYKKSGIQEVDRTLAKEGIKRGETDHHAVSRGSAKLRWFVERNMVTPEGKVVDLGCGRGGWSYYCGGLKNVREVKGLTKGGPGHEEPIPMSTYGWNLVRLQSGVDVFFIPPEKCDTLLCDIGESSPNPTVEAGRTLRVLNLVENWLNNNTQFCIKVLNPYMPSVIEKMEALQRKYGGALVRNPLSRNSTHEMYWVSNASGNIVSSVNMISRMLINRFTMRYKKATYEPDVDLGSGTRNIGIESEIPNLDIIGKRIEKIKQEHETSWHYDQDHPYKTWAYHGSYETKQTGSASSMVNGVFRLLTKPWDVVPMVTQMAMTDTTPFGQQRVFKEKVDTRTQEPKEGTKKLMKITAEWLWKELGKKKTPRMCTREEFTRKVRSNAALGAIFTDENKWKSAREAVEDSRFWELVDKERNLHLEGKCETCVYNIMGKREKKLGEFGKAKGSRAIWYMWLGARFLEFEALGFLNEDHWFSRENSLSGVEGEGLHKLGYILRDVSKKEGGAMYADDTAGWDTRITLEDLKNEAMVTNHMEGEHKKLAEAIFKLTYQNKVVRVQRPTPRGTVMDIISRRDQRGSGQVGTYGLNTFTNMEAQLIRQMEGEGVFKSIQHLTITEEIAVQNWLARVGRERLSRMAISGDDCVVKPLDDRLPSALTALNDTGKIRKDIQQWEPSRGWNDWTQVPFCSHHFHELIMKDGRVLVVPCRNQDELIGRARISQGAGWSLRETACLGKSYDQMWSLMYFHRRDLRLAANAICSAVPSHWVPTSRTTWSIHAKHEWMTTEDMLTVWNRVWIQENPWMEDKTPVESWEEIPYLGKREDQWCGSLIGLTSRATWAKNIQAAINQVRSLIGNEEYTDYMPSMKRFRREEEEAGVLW
# T6 sequence (P51452 whole entry): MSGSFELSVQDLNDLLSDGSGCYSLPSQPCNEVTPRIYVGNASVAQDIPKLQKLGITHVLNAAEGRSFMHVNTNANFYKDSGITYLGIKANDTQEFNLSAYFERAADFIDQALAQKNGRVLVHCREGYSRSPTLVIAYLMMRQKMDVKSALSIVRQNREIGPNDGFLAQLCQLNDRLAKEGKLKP
# Chain of Induced myeloid leukemia cell differentiation protein Mcl-1 (Q07820 whole entry): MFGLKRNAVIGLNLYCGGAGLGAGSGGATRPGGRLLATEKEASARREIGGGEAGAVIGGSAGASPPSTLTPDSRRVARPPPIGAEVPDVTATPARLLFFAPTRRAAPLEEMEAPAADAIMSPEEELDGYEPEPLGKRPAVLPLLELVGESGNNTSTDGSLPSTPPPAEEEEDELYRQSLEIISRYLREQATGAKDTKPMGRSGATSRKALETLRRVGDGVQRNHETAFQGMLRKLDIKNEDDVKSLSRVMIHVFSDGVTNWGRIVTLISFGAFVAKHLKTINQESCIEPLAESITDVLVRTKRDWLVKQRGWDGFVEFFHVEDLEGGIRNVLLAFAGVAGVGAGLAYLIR
compound,measurement,setting,value
CC(C)C1Nc2ccc(C(=O)O)cc2C2C=CCC21 (configuration not stated),AC50,[1],> 20 µM (inactive)
same,CC50,Vero,> 40 µM (active)
same,IC50,Genome polyprotein,38.7 µM (active)
same,IC50,[2],16.2 µM (active)
same,IC50,[3],21.8 µM (active)
Cc1cc(Cl)c(OCCCSc2nc(C)cc(O)n2)c(Br)c1,EC50,Integrin alpha-L,17.1 µM (active)
same,EC50,T-cell,56.6 µM (inactive)
Cc1cc(NC(=O)COC(=O)c2c(C)nn(Cc3ccccc3)c2C)no1,IC50,Coagulation factor XII,> 50 µM (inactive)
COc1ccc(S(=O)(=O)NCc2ccc(C(=O)NCCN(Cc3ccccc3)Cc3ccccc3)cc2)cc1,IC50,[4],> 32 µM (inactive)
same,IC50,Mu-type opioid receptor,> 32 µM (inactive)
same,IC50,[5],> 20 µM (inactive)
same,IC50,[6],13.1 µM (inactive)
O=C(Nc1cc(Cl)ccc1C(=O)O)c1ccc2c(c1)OCO2,IC50,Hexokinase,9.43 µM (active)
O=C(NCc1ccccc1)c1cn(CCOc2ccccc2)c2ccccc12,IC50,[7],44.1 µM (active)
same,IC50,[8],> 100 µM (inactive)
same,IC50,[9],> 100 µM (inactive)
same,IC50,[10],> 100 µM (inactive)
Oc1ccc(/C=N/N=C(c2ccccc2)c2ccccc2)c(O)c1O,IC50,[11],19.3 µM (active)
same,IC50,[12],3.27 µM (active)
same,AC50,[1],0.635 µM (active)
same,IC50,[13],12.1 µM (active)
same,IC50,[14],4.44 µM (active)
same,IC50,[15],10.8 µM (active)
same,CC50,Vero,31.3 µM (active)
same,IC50,[16],79.2 µM (inactive)
same,IC50,Genome polyprotein,23.4 µM (active)
same,IC50,[17],> 64 µM (inactive)
